By LOAEL is commonly meant the lowest tested level that showed an adverse finding. A word on the NOAEL: it is the highest tested level that showed no adverse finding. Usually LD50 stands for the dose expected to kill half of the subjects tested.

Experimental findings from EPA's ToxValDB 9.5 are described below.

For data set [1], the system named is Mus musculus. The settings on record: subchronic; duration: 90 days; oral; gavage; M/F; CD1; hepatic.
Data set [2] has as its system Rattus norvegicus. The settings on record: uterotrophic; duration: 3 days; injection; subcutaneous; Active.
The subject of data set [3] is Mus musculus. The settings on record: subchronic; oral; M/F; nephropathy, increased liver weight, hematological alterations, and clinical effects.
For data set [4], the system named is Rattus norvegicus. The settings on record: for LD50 / LC50: acute.
For data set [5], the system named is Mus musculus. To be noted: acute.
Data set [6] deals with Rattus norvegicus. The experiment in a line: LD0; higher = less toxic. The settings on record: acute; dermal; semiocclusive; Sprague-Dawley.
Data set [7] deals with Canidae. The settings on record: oral, Beagle.
Data set [8] relates to Oryctolagus sp. The settings on record: acute, New Zealand.
For data set [9], the system named is Rattus norvegicus. To be noted: subchronic, duration: 13 weeks, oral, diet, Crl.
For data set [10], the system named is Canidae. The settings on record: oral, capsule, M/F, Beagle.
Data set [11] has as its system Rattus norvegicus. The settings on record: chronic, hepatic; for NOAEL: M/F.
Data set [12] deals with Homo sapiens. To be noted: clinical; duration: 1 days; inhalation; chamber; M/F; neurological.
The subject of data set [13] is Rattus norvegicus. The settings on record: repeat dose other; oral.
The subject of data set [14] is Rattus norvegicus. The settings on record: chronic, Liver: Toxicity.
Data set [15] relates to Homo sapiens. The settings on record: clinical, oral.
Where [16] appears, read: subchronic, duration: 13 weeks, oral, diet.
Setting [17] is: subchronic, duration: 13 weeks, diet.
Where [18] appears, read: duration: 9 months, Decreased bodyweights, mortality, prostatic malfunction, foci of softening in the brainstem, & testicular atrophy.

In the case of `c1ccc2c(c1)-c1cccc3cccc-2c13` [Fluoranthene], the LOAEL in data set [1] amounted to 125 mg/kg-day. Also, the LEL in data set [2] stood at 10 mg/kg-day. In data set [3], this compound showed an LOAEL of 250 mg/kg-day and an NOAEL of 125 mg/kg-day.

Regarding `SCc1ccccc1` [Benzenemethanethiol], the LD50 in [4] (injection, Intraperitoneal, Wistar) came out at 373 mg/kg; in data set [4] (oral, gavage, Wistar), 493 mg/kg. Further, the LC50 in data set [5] (inhalation, Swiss) came to 904 mg/m3. In data set [6], this compound had an LD0 of at least 2000 mg/kg.

For the compound `CC(C)CC(C)(O)C#CC(C)(O)CC(C)C` (stereo not given) [2,4,7,9-Tetramethyl-5-decyne-4,7-diol], in [4] (Inhalation), the LC50 is over 20 µg/mL. For the same compound, the LD50 in data set [4] (dermal) is over 2000 mg/kg; in data set [4] (oral, Sprague-Dawley), over 500 mg/kg; in [8] (dermal, occlusive), over 1000 mg/kg. For the same compound, the NOAEL in data set [4] (reproduction developmental, oral, diet, Sprague-Dawley, generation: F0) worked out at 500 mg/kg-day; in [4] (reproduction developmental, oral, diet, Sprague-Dawley, generation: F1) it was 500 mg/kg-day; in [4] (short-term, duration: 28 days, oral, diet), 5000 ppm. Besides, the LOAEL in data set [7] (chronic, duration: 130 days) is 200 mg/kg-day.

Take `CCCCCCO` [1-Hexanol]: the NOAEL in data set [9] (F) was 1240 mg/kg-day; in data set [9] (M), 1130 mg/kg-day; in data set [4] (developmental, inhalation, Sprague-Dawley) it was over 3500 mg/m3; in [4] (reproduction developmental, inhalation, F, Sprague-Dawley), over 3500 mg/m3. Besides, the NOEL in data set [9] (F) was determined as 1240 mg/kg-day; in data set [9] (M) it was 1130 mg/kg-day. In data set [4] (inhalation), this compound displayed an LC50 of over 21 µg/mL. For the same compound, the “LOAEL (% diet)” value in data set [4] (setting [16]) and in [7] (setting [17]) was 1 in each case. The “NOAEL (% diet)” value in data set [4] (setting [16]) and in [7] (setting [17]) was over 0.5 in each case. For the same compound, the LD50 in data set [5] (injection, intravenous) amounted to 100 mg/kg.

For the compound `COC(=O)Nc1nc2ccc(C(=O)c3ccc(F)cc3)cc2[nH]1` [Flubendazole], the NOEL worked out at 2.5 mg/kg-day in [10] (duration: 3 months, Atrophic change in prostate) and 2.5 mg/kg-day in data set [10] (subchronic, duration: 3 months, Atrophic change in prostate).

Take `N=C(N)c1ccc(N=NNc2ccc(C(=N)N)cc2)cc1` [Diminazene]: in data set [10] (setting [18]), the LOEL is 60 mg/kg-day and the NOEL was determined as 20 mg/kg-day.

With `ClCCl` [Dichloromethane], the NOAEL in [11] (duration: 2 years, inhalation, Sprague-Dawley) is 174 mg/m3; in data set [11] (duration: 104 weeks, oral, drinking water, Fischer-344), 6 mg/kg-day; in data set [13] it was 5.85 mg/kg-day; in data set [14] (duration: 2 years, inhalation, intermittent), 695 mg/m3; in data set [14] (duration: 24 months, oral, drinking water), 5.85 mg/kg-day. In addition, the LOAEL in [11] (duration: 14 weeks, inhalation, unknown) is 86.8 mg/m3; in [12], 1040 mg/m3; in [13], 50 mg/kg-day.

Regarding `CCC[C@@H]1C[C@@H](C(=O)N[C@@H]([C@H]2O[C@H](SC)[C@H](O)[C@@H](O)[C@H]2O)[C@@H](C)O)N(C)C1` [Lincomycin], the NOEL in data set [15] (duration: 12 months, Change in gut flora) was 2.5 mg/kg-day.

In turn, `CN(C)[C@@H]1C(=O)C(C(N)=O)=C(O)[C@@]2(O)C(=O)C3=C(O)c4c(O)cccc4[C@@](C)(O)[C@H]3C[C@@H]12` [Tetracycline] registered an NOEL in [15] (Selection of resistant bacterial strains) of 0.033 mg/kg-day.

On to `CC(O)CN(CC(C)O)c1nc(Nc2ccc(S(=O)(=O)[O-])cc2)nc(Nc2ccc(/C=C/c3ccc(Nc4nc(Nc5ccc(S(=O)(=O)[O-])cc5)nc(N(CC(C)O)CC(C)O)n4)cc3S(=O)(=O)[O-])c(S(=O)(=O)[O-])c2)n1.[Na+].[Na+].[Na+].[Na+]` (stereo not given), for which the LD50 in data set [4] (oral, Wistar) is over 2500 mg/kg. In addition, the NOAEL in data set [4] (short-term, duration: 5 days, oral, gavage, F, Wistar) came out at 1020 mg/kg-day; in data set [4] (short-term, duration: 5 days, oral, gavage, M, Wistar), 1020 mg/kg-day; in data set [4] (subchronic, duration: 13 weeks, oral, gavage, F, Wistar) it was 300 mg/kg-day; in data set [4] (subchronic, duration: 13 weeks, oral, gavage, M, Wistar), 300 mg/kg-day. For the same compound, the LC50 in data set [7] (acute) was over 500 mg/kg; in [5] (oral, NMRI), over 1000 mg/kg; in data set [8] (oral) it was over 1000 mg/kg.
